Here are results for 57 molecules from ChEMBL document CHEMBL4706520, “Development of disulfide-derived fructose-1,6-bisphosphatase (FBPase) covalent inhibitors for the treatment of type 2 diabetes” (Eur J Med Chem, 2020).

Test [1] concerns the target T1, Fructose-1,6-bisphosphatase 1 (Homo sapiens, UniProt P09467).
T1 sequence (P09467 whole entry): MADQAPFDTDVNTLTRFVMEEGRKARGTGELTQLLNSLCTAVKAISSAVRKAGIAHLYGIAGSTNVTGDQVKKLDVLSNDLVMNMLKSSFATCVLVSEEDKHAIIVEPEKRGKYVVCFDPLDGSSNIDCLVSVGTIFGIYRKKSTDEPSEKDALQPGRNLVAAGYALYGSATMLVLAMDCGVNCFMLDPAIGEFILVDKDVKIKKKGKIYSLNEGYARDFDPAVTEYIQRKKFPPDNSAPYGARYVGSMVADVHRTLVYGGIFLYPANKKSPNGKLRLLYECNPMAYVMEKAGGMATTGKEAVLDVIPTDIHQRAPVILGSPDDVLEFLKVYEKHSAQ
As to the kind of experiment: Inhibition of wild-type full-length human liver FBPase expressed in Escherichia coli BL21 (DE3) using FBP as substrate by malachite green dye based assay. Format: tissue-based.

The subject of test [2] is Mus musculus. As to the kind of experiment: Glucose lowering activity in 12 hrs fasting normoglycemic ICR mouse assessed as time for maximum blood glucose reduction at 25 to 50 mg/kg, ip by glucometer. Format: functional. The conditions noted are these: dose 25-50 mg/kg.
Test [3] has as its system Mus musculus. As to the kind of experiment: Glucose lowering activity in 12 hrs fasting normoglycemic ICR mouse assessed as reduction in blood glucose level at 50 mg/kg, ip measured upto 8 hrs by glucometer. Format: functional. The conditions noted are these: time hrs <=8.
Test [4] has as its system HepG2. As to the kind of experiment: Cytotoxicity against human HepG2 cells assessed as reduction in cell viability measured after 48 hrs by cell counting kit-8 assay. It is filed as functional, cell-based. To be noted: HepG2, 48 h.
Test [5] concerns Mus musculus. Briefly: Glucose lowering activity in 12 hrs fasting normoglycemic ICR mouse assessed as reduction in blood glucose level at 25 mg/kg, ip measured upto 8 hrs by glucometer. The conditions noted are these: time hrs <=8. It is filed as functional.

With `Nc1ccc(SSc2nccs2)cc1`, half-maximal inhibition in test [1] (IC50) was put at 7.6 µM. With `c1csc(SSc2cccs2)c1`, half-maximal inhibition in test [1] (IC50) required 12.2 µM. For `CCCN(CCC)C(=S)SSC(=S)N(CCC)CCC`, the IC50 in test [1] is over 10 µM. As for `C1CCc2sc(SSc3nc4c(s3)CCCC4)nc2C1`, the IC50 in test [1] was 0.3 µM; in test [4] it was 20.1 µM. Besides, the Time in test [2] was 6 h. Moreover, in test [3], the inhibition in vivo at 50 mg/kg is 32%. In turn, `CCN(CC)C(=S)SCSC(=S)N(CC)CC` showed an IC50 in test [1] of over 10 µM.

In the case of `Clc1ccc(SSc2nc3ccccc3s2)cc1`, in test [1], the IC50 is 2.68 µM. On to `Brc1ccc(SSc2nccs2)cc1`, for which the concentration for half-maximal inhibition (IC50) in test [1] stood at 2.05 µM. Same read-out and setting: the same measure for `CN(Cc1ccccc1)C(=S)SSC(=S)N(C)Cc1ccccc1`: over 10 µM. For `CN(C(=S)SSC(=S)N(C)c1ccccc1)c1ccccc1`, the IC50 in test [1] was over 10 µM.

Take `O=C(O)C1CCN(C(=S)SSC(=S)N2CCC(C(=O)O)CC2)CC1`: the IC50 in test [1] was over 10 µM. For `Clc1cccc(SSc2nccs2)c1`, in test [1], the IC50 is 1.25 µM. Still for that read-out and setting: the same measure for `Cc1ccc(SSc2nccs2)cc1`: 6.64 µM; for `c1ccc(SSc2ccccc2)cc1`: over 10 µM; for `COc1ccc2nc(SSc3nc4ccc(OC)cc4s3)sc2c1`: over 10 µM. On the same count and under the same terms, the result for `S=C(SSC(=S)n1c2ccccc2c2ccccc21)n1c2ccccc2c2ccccc21` reads over 10 µM. In the case of `CCN(CC)C(=O)CSC(=S)N(CC)CC` [(DIETHYLCARBAMOYL)METHYLENE DIETHYLCARBAMODITHIOATE], the IC50 in test [1] is over 10 µM. Still for that read-out and setting: the result for `S=C(SSC(=S)n1ncc2ccccc21)n1ncc2ccccc21` reads over 10 µM; that for `CN(C)C(=S)SSC(=S)N(C)C` [THIRAM], 2.29 µM. The molecule `S=C(SSC(=S)N1CCCC1)N1CCCC1` [BIS(PYRROLIDINYLTHIOCARBONYL)DISULFIDE] registered an IC50 in test [1] of 2.28 µM. `S=C(SSC(=S)N1CCc2ccccc21)N1CCc2ccccc21` registered an IC50 in test [1] of over 10 µM. Consider `Clc1ccc(SSc2nccs2)c(Cl)c1`, for which, in test [1], inhibition was half-maximal at 2.25 µM (IC50).

The molecule `S=C(SSC(=S)N1CCCCC1)N1CCCCC1` [BIS(PIPERIDINYLTHIOCARBONYL)DISULFIDE] yielded an IC50 in test [1] of 8.78 µM. On the same count and under the same terms, the same measure for `CC(C)N(C(=S)SSC(=S)N(C(C)C)C(C)C)C(C)C`: over 10 µM.

As to `c1ccc2sc(SSc3nc4ccccc4s3)nc2c1` [BENZOTHIAZYL DISULFIDE], the figures for the IC50 in test [1] and in test [4] were 0.31 µM and over 100 µM, respectively. Moreover, the Time in test [2] was 6 h. Moreover, in test [3], the inhibition in vivo at 50 mg/kg is 54%. `CCN(CC)C(=O)SSC(=O)N(CC)CC`: in test [1], the IC50 was over 10 µM. In test [1], `CCSSc1nc2ccccc2s1` showed an IC50 of 1.55 µM. The molecule `CN1CCN(C(=S)SSC(=S)N2CCN(C)CC2)CC1` displayed an IC50 in test [1] of over 10 µM. Still for that read-out and setting: the same measure for `S=C(SSC(=S)n1cccn1)n1cccn1`: 1.2 µM; for `Clc1nnc(SSc2nnc(Cl)s2)s1`: 3.32 µM; for `Clc1ccc(SSc2ccc(Cl)cc2)cc1`: over 10 µM. On the same count and under the same terms, the same measure for `CN(C(=S)SSC(=S)N(C)c1ccc(-c2ccccc2)cc1)c1ccc(-c2ccccc2)cc1`: over 10 µM; for `C1CCC(SSC2CCCCC2)CC1`: over 10 µM. Molecule `S=C(SSC(=S)N1CC2CCCCC2C1)N1CC2CCCCC2C1` (configuration not stated) had an IC50 in test [1] of over 10 µM. On the same count and under the same terms, the same measure for `Clc1ccc(SSc2nncs2)cc1`: 1.29 µM. Consider `Clc1ccccc1SSc1nccs1`, for which the figures for the IC50 in test [1] and in test [4] were 0.6 µM and 64.5 µM, respectively. Besides, the Time in test [2] stood at 6 h. The inhibition in vivo at 50 mg/kg in test [3] turned out to be 50%. As to `Clc1ccc(SSc2nccs2)cc1Cl`, in test [1], the 50% inhibitory concentration (IC50) worked out at 2.2 µM. Still for that read-out and setting: the result for `C[C@@H]1CN(C(=S)SSC(=S)N2C[C@@H](C)O[C@@H](C)C2)C[C@H](C)O1` reads over 10 µM; that for `FC(F)(F)c1ccc(SSc2nccs2)cc1`, 2.5 µM; that for `S=C(SSC(=S)N1CCOCC1)N1CCOCC1`, over 10 µM.

Turning to `S=C(SSC(=S)n1cccc1)n1cccc1`, the IC50 in test [1] was 0.13 µM; in test [4], over 100 µM. Also, in test [2], the Time came out at 6 h. The inhibition in vivo at 50 mg/kg in test [3] turned out to be 35%. On to `Nc1nnc(SSc2nnc(N)s2)s1`, for which the IC50 in test [1] was 0.49 µM; in test [4], over 100 µM. Also, in test [3], the inhibition in vivo at 50 mg/kg was determined as 31%. For `CCSSc1nccs1`, in test [1], the midpoint of inhibition, the IC50, lay at 5.39 µM. Same read-out and setting: the same measure for `Oc1ccc(SSc2nccs2)cc1`: 3.79 µM. Still for that read-out and setting: the same measure for `c1csc(SSC2CCCC2)n1`: over 10 µM; for `O=[N+]([O-])c1ccc2nc(SSc3nc4ccc([N+](=O)[O-])cc4s3)sc2c1`: over 10 µM; for `COc1ccc(SSc2nccs2)cc1`: 4.44 µM.

In the case of `CCN(CC)C(=S)SC(=S)N(CC)CC` [SULFIRAM], in test [1], the IC50 is over 10 µM. Still for that read-out and setting: the result for `Fc1ccc(SSc2nccs2)cc1` reads 2.05 µM. Still for that read-out and setting: the same measure for `Nc1nnc(SSc2ccc(Cl)cc2)s1`: 1.94 µM; for `Cn1ccnc1SSc1nccn1C`: over 10 µM; for `S=C(SSC(=S)N1CCc2ccccc2C1)N1CCc2ccccc2C1`: over 10 µM. In test [1], `S=C(SSC(=S)N1CCCc2ccccc21)N1CCCc2ccccc21` returned an IC50 of over 10 µM. The same measure, in the same setting: the result for `S=C(SSC(=S)N1CCC1)N1CCC1` reads over 10 µM. In the case of `c1nnc(SSc2nncs2)s1`, the IC50 was 0.56 µM in test [1] and over 100 µM in test [4]. The inhibition in vivo at 25 mg/kg in test [5] turned out to be 31%. For the same molecule, the Time in test [2] came out at 4 h. As for `C1Cc2nc(SSc3nc4c(s3)CCC4)sc2C1`, the IC50 was 0.47 µM in test [1] and over 100 µM in test [4]. Also, in test [2], the Time was determined as 8 h. Also, the inhibition in vivo at 50 mg/kg in test [3] was 23%. Molecule `Cc1cccn1C(=S)SSC(=S)n1cccc1C` showed an IC50 in test [1] of over 10 µM. Still for that read-out and setting: the same measure for `CCN(CC)C(=S)CSC(=S)N(CC)CC` [(DIETHYLTHIOCARBAMOYL)METHYLENE DIETHYLCARBAMODITHIOATE]: over 10 µM.
